Active and inactive are the calls of the source. No cut-off for these calls is given here.

In test [1] the target is T1, Acetylcholinesterase (Mus musculus) (UniProt P21836).
T1 sequence (whole entry): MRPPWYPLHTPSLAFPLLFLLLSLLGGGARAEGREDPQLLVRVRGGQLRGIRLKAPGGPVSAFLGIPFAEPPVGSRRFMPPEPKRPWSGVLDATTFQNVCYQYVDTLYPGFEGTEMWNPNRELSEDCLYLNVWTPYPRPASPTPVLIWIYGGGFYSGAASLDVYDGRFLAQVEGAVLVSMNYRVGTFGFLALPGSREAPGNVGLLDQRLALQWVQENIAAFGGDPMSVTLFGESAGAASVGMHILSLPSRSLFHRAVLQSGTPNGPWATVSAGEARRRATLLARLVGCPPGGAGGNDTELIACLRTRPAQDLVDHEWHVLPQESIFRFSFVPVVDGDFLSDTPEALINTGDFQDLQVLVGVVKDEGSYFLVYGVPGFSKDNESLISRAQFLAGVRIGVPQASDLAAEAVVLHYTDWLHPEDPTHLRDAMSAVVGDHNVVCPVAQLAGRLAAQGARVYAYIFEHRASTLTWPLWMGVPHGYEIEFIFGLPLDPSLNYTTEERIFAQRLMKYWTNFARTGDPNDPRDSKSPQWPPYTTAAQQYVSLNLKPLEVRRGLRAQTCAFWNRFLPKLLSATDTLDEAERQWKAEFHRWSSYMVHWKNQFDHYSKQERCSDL
Kind of test: Compound was tested against recombinant mouse Acetylcholinesterase; 5-40 uM, Modest inhibition.

For test [2], the target named is Acetylcholinesterase (Electrophorus electricus) (UniProt O42275). The test can be described thus: Compound was tested against electric eel Acetylcholinesterase; Inactive.
Acetylcholinesterase (Electrophorus electricus), sequence (O42275 24-633 limits assumed): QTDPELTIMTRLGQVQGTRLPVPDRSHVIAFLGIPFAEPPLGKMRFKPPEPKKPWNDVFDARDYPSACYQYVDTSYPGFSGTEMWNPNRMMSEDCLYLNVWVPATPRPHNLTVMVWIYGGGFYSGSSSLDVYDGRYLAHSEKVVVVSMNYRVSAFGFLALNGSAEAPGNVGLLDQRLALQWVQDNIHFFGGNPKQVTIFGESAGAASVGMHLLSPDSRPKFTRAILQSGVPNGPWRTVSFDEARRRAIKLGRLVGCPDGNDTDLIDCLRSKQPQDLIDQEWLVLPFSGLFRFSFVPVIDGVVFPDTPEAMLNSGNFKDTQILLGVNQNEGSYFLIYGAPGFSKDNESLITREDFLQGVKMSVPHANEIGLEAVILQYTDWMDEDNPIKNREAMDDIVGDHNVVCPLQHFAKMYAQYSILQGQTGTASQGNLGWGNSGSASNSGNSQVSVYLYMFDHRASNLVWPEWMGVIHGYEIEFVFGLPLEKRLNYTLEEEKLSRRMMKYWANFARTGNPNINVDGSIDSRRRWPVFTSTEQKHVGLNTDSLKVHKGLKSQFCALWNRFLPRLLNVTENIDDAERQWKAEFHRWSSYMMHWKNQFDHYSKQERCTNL

Consider `COP(=O)(CC(=O)N[C@@H](CCCCNS(=O)(=O)c1ccc2ccc3cccc4ccc1c2c34)C(N)=O)OC`, for which the Concentration in test [1] is 40 µM. In addition, the result in test [2] was inactive.

For `COP(=O)(CC(=O)N[C@@H](CCCCNS(=O)(=O)c1ccc2ccc3cccc4ccc1c2c34)C(N)=O)SC` (some centres undefined), the Concentration in test [1] came to 40 µM. Besides, the outcome in test [2] was inactive.

The record behind these values is ChEMBL document CHEMBL1133225.
